The values that follow are results of earlier work, collected in US6447807B1, “Potassium (-)-hydroxycitric acid methods for pharmaceutical preparations for stable and controlled delivery” (priority 1999, dated 2002).

For the series the following is noted: single large oral dose, or two divided oral doses totaling one fourth of it; animals fed a high-sugar diet.

With `O=C(O)CC(O)(C(=O)O)C(O)C(=O)O` (single isomer, unassigned; (-)) [HCA, (−)-Hydroxycitric acid], the “reduction in food consumption” value is ≥ 10%.
